The values below are quoted from earlier work in patent publication US10583101B2 (EMCURE PHARMACEUTICALS LIMITED, priority 2016, dated 2020).

As to `O=NN(CCCl)C(=O)NCCCl` [Carmustine, 1,3-bis (2-chloroethyl)-1-nitrosourea], where the note is “alcohol and lipids”, the “solubility in alcohol and lipids” value was “highly soluble in alcohol and lipids”. The solubility in water result (water) was “poorly soluble in water”.
